Measured values: paper PMC8780768 (Life, 2022)
Values joined by “and” are separate entries in the source; they are usually repeats but may differ in a detail not shown here. Identical values can stand only once. Like-named read-outs stand apart in the source and are kept apart here.

Tests used:
Format in all cases: cell-based
[1] = biological target: T1, GABA-ρ2 receptors (Homo sapiens, UniProt P28476); assay: Two-electrode voltage-clamp, co-application of ligand with GABA EC50 at GABA-ρ2 receptors (additive/inhibition)
T1 construct: expressed in transfected cells; host or cells: Xenopus laevis oocytes injected with cRNA
T1 sequence (P28476 21-465): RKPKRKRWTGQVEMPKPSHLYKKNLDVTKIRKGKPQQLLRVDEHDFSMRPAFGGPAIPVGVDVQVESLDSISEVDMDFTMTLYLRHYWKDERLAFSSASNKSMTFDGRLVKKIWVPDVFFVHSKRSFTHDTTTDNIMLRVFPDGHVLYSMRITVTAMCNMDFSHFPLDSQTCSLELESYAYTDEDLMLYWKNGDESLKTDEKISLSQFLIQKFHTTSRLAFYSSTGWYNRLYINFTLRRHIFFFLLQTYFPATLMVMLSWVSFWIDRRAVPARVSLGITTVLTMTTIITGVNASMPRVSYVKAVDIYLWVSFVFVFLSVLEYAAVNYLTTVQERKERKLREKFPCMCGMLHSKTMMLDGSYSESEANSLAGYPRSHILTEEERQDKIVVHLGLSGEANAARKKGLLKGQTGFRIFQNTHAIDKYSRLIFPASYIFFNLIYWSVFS
Experimental: (§1) The activity of receptors was tested by recording whole cell currents using the two-electrode voltage clamp technique as previously reported. In brief, fabricated microelectrodes prepared with a micropipette puller (Sutter instruments, Novato, CA, USA), were filled with 3 M KCl solution (0.3–2.3 MΩ). Oocytes were immersed with ND96 buffer in the cell chamber at approximately 5 mL/min rate. The microelectrode impaled cells were clamped at −60 mV (voltage), and the currents elicited in response to the application of ligand/s was recorded using a Power Lab 2/25 analogue–digital data acquisition system (AD Instruments, Sydney, NSW, Australia), a Geneclamp 500 B amplifier (Axon Instrument, Foster City, CA, USA), and Lab Chart version 5.0.2 program (ADInstruments, Sydney, Australia).
(§2) Ligands were applied into the perfusate until a peak response (maximal) was reached. All stock solutions of the ligands were freshly made on the day of experiments. Solutions of ligands dissolved in DMSO were standardized to contain less than 0.8% DMSO in the final perfusate solution to prevent any alteration in the recordings. Perfusates containing these ligands (chemicals) were freshly prepared before each application. The dose–response curves of ligands were obtained by increasing the concentrations of applied agonists on oocytes until the maximum current reached. […] All experiments were conducted using at least two batches of oocytes.
(§3) I = Imax [A]^nH / (EC50^nH + [A]^nH)(1) where I is the current response, referring to a known concentration of agonist; Imax is the maximum current obtained; [A] is the agonist concentration; EC50 is the concentration of agonist/partial agonist at which the current response is half maximal; and nH is the Hill coefficient.
(§4) The equations for bell-shaped and biphasic curves are embedded in GraphPad PRISM 8.02.
(§5) A p value < 0.05 was considered statistically significant. […] Significance assigned * if p < 0.05, ** if p < 0.01, *** if p < 0.001 and **** if p < 0.0001.

[2] = biological target: T2, GABA-ρ1 receptors (Homo sapiens, UniProt P24046); assay: Two-electrode voltage-clamp, agonist dose–response at GABA-ρ1 receptors expressed in Xenopus oocytes
T2 construct: expressed in transfected cells; host or cells: Xenopus laevis oocytes injected with cRNA
T2 sequence (P24046 22-479): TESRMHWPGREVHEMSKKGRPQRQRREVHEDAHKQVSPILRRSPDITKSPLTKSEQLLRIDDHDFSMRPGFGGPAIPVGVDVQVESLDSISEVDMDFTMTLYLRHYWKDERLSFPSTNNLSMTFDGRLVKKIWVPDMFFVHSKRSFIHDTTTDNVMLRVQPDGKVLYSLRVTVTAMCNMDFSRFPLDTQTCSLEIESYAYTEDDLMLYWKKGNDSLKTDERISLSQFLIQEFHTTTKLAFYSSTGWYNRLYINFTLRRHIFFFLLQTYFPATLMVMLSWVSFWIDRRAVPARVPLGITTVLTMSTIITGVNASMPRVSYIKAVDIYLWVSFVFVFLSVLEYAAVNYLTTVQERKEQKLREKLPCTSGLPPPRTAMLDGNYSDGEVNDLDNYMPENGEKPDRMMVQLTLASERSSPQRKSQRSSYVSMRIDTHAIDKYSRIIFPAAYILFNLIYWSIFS
Experimental: (§6) Ovary lobes were dissected from female Xenopus laevis (South Africa clawed frogs), which were removed as reported previously, in accordance with the National Health and Medical Research Council (NHMRC) of Australia’s ethical guidelines. This procedure is also approved by the University of Sydney’s animal ethics committee (2013/5915). In brief, the females of Xenopus laevis were anaesthetized using 0.17% 3-aminobenzoic acid ethyl ester with 0.02% NaCl for 10–15 min, and a lobe of the ovary was dissected. The lobes were washed with oocyte releasing buffer 2 (OR2: 82.5 mM NaCl, 5 mM HEPES, 2 mM KCl, 1 mM MgCl2.6H2O pH 7.5) and incubated with collagenase A (2 mg·mL^−1 in OR2, Boehringer Mannheim, Mannheim, Germany) for approximately 2 h to separate oocytes from follicular cells and connective tissue. The released oocytes were washed in ND96 solution (96 mM NaCl, 1 mM MgCl2.6H2O, 2 mM KCl, 5 mM HEPES, and 1.8 mM CaCl2 pH 7.5). Stage V–VI oocytes were collected and injected in the cytoplasm using a 15–20 μm diameter tip micropipette (micropipette puller, Sutter Instruments, Novato, CA, USA) and a Nanoject injector (Drummond Scientific Co., Broomall, PA, USA) set to deliver a total of ~15 ng of cRNA.
(§7) The injected oocytes were placed on an oscillator at 18 °C for 2–6 days in ND96 solution, which contained 0.5 mM theophylline, 2.5 mM pyruvate, 50 μg/mL tetracycline, and 50 μg/mL gentamycin.
as §1, §2, §3

[3] = biological target: T1, GABA-ρ2 receptors; assay: Two-electrode voltage-clamp, agonist dose–response at GABA-ρ2 receptors expressed in Xenopus oocytes; details: for GABA-ρ2 Efficacy: relative to GABA maximal response
Experimental: as §6, §7, §1, §2, §3

[4] = biological target: T2, GABA-ρ1 receptors; assay: Two-electrode voltage-clamp, co-application of ligand with GABA EC50 at GABA-ρ1 receptors (additive/inhibition); details: for GABA-ρ1 Additive/Inhibition Hill slope: co-application curve with GABA EC50
Experimental: as §1, §2, §3, §4, §5

[5] = co-application curve with GABA EC50 (800 nM)
[6] = co-applied with GABA EC50 (800 nM), % of GABA EC50 response
[7] = TEVC, Xenopus oocytes, −60 mV, read-out: GABA-ρ1 EC50
[8] = relative to GABA maximal response
[9] = TEVC, Xenopus oocytes, −60 mV, read-out: GABA-ρ2 EC50
[10] = co-applied with GABA EC50, % of GABA EC50 response
[11] = bell-shaped/biphasic co-application curve with GABA EC50

Row | SMILES | GABA-ρ2 Additive/Inhibition Hill slope [1, 5] | GABA-ρ2 Additive (%) [1, 6] | % of GABA EC50 response when co-applied with 1 µM ligand ([1]; oocytes) | EC50 [2, 7] | GABA-ρ1 Efficacy [2, 8] | EC50 [3, 9] | GABA-ρ2 Efficacy [3] | GABA-ρ1 Additive/Inhibition Hill slope [4] | GABA-ρ1 Additive (%) [4, 10] | EC50 [2] | EC50 [3] | GABA-ρ2 Additive (%) [1] | % of GABA EC50 response when co-applied with 10 µM ligand ([1]; oocytes) | further results
1 | NCCCCC(=O)O [5-Aminovaleric acid, 5-amino valeric acid] | 0.6 ± 0.48 | 110% | 92% | 600 µM | 3% | 36 µM | 45% | 3 ± 0.75 | 125% |  |  |  |  | IC50 [1]: 10 µM; % of GABA EC50 response when co-applied with 100 µM ligand ([1]; oocytes): 51.1%; IC50 [4]: 35 µM
2 | NCCC(=O)O [β-Alanine, β-alanine] |  | 120% | 108.9% |  | 30% |  | 85% | 1.5 ± 0.8 | 120% | 400 µM | 560 µM |  |  | % of GABA EC50 response when co-applied with 100 µM ligand ([1]; GABA-ρ2, GABA EC50 800 nM, ligand 100 µM): no significant effect; GABA-ρ2 Additive/Inhibition nH2 [1, 11]: 1.6 ± 0.36
3 | NCC(=O)O [Glycine, glycine] |  |  |  | ~1000 µM | 25% | ~1000 µM | 70% |  | 170% |  |  | 115% |  | % of GABA EC50 response when co-applied with 1 µM ligand [1]: does not show a significant effect; % of GABA EC50 response when co-applied with 100 µM ligand [1]: 115.4% and 115%; GABA-ρ2 Additive/Inhibition nH1 [1, 11]: 1.8 ± 0.3; GABA-ρ2 Additive/Inhibition nH2 [1, 11]: 1.7 ± 0.5
4 | NCCCC(=O)O [GABA] |  |  |  |  |  |  |  |  |  |  |  |  |  | EC50 ([3]; TEVC, Xenopus oocytes, read-out: GABA-ρ2 EC50): 0.8 µM
5 | NCc1cc(=O)[nH]o1 [Muscimol, muscimol] |  |  | 106.9 ± 1.1% |  | 80% |  | 65% |  | 125% | 1.25 µM | 0.65 µM | 112% | 107.9 ± 3.1% | GABA-ρ2 Additive/Inhibition Hill slope [1]: 0.14 ± 0.48
6 | NC/C=C/C(=O)O [TACA] | 0.8 ± 0.46 | 140% | 118.4% | 0.6 µM |  | 0.45 ± 0.4 µM | 85% | 0.9 ± 0.08 |  |  |  |  | 137.5% | GABA-ρ1 Efficacy [2]: 95%; GABA-ρ1 Additive (%) [4]: 190%
7 | O=C(O)C1=CCNCC1 [Isoguvacine, isoguvacine] | 0.37 ± 3.1 | 120% | 106.8 ± 2.5% | 205 µM | 40% | 35 µM | 25% | 0.57 ± 0.25 | 135% |  |  |  | 110 ± 4.3% | efficacy at GABA-ρ1 receptors, fold higher than at GABA-ρ2 receptors ([2]; ρ1 versus ρ2): two-fold; potency at GABA-ρ2 receptors, fold higher than at GABA-ρ1 receptors ([3]; ρ2 versus ρ1): six-fold
8 | O=C(O)Cc1c[nH]cn1 [Imidazole-4-acetic acid, imidazole-4-acetic acid] |  |  | 94.2 ± 1.4% |  | 10% |  | 40% | 1.3 ± 0.22 | 115% | 66 µM | 0.2 µM | 110% | 86.25 ± 3.5% | GABA-ρ2 Additive/Inhibition Hill slope [1]: 0.87 ± 0.39; IC50 [1]: 2.4 µM; efficacy at GABA-ρ2 receptors, fold higher than at GABA-ρ1 receptors ([3]; ρ2 versus ρ1): 100 fold; potency at GABA-ρ2 receptors, fold higher than at GABA-ρ1 receptors ([3]; ρ2 versus ρ1): 4 fold; IC50 [4]: 0.8 µM
9 | NC/C=C\C(=O)O [CACA] |  |  |  | 93 ± 5.2 µM |  | 37 ± 12 µM | 60% | 0.9 ± 0.44 |  |  |  |  |  | effect on GABA EC50 response when co-applied with 1 mM ligand ([1]; GABA-ρ2, GABA EC50, ligand 1 mM, data not shown): does not show any significant effect; GABA-ρ1 Efficacy [2]: 60%; GABA-ρ1 Additive (%) [4]: 160%
